Patent EP2198709A1, “Method for treating resistant animal pests” (Bayer CropScience AG, priority 2008, dated 2010)

Tests used:
Format in all cases: in vivo
[1] = system: Nilaparvata lugens Vietnam; test: Spray test on infested rice seedlings (standard screening), resistant strain Vietnam; details: rice seedlings sprayed, evaluation 7 days after infection
Source text: Reissetzlinge wurden mit Stämmen von Nilaparvata lugens (Bayer S und Vietnam) infiziert und mit der Verbindung I-5 bzw. mit Imidacloprid besprüht. Die Auswertung erfolgte 7 Tage nach Infektion (Standard-Screening-Verfahren).

[2] = system: Nymphen von Bemisia tabaci; test: Field trial on pepper plants, spray, against nymphs of neonicotinoid-resistant whiteflies (Almeria); details: sprayed 3x, 150 g ai/ha/m CH, I-5 SL 200, Imidacloprid OD 200
Source text: In Almeria (Südspanien) wurden Paprikapflanzen, die sehr stark mit Nymphen von bekanntermaßen Neonikotinoyl-resistenten Weißen Fliegen (Bemisia tabaci) infiziert waren, jeweils drei Mal im Abstand von 9 und 12 Tagen mit der Verbindung I-5 (SL 200, 150 g ai/ha/m CH (g aktive Substanz/ha/m CH, CH = Laubwand-Höhe) bzw. mit Imidacloprid (OD 200, 150 g ai/ha/m CH) besprüht. Zu verschiedenen Zeitpunkten nach der dritten Behandlung (DAC = Tage nach 3. Behandlung) wurde die Wirksamkeit (in % Abbott: Verhältnis der Anzahl Nymphen auf behandelter Pflanze / Fläche zur Anzahl Nymphen auf Kontrolle) der beiden Substanzen gegen Nymphen von Bemisia tabaci in bestimmt.

[3] = system: Nymphen von Bemisia argentifolii; test: Field trial on melon plants, spray, against nymphs of neonicotinoid-resistant silverleaf whiteflies (Arizona); details: 150 g ai/ha/m CH, SL 100, Imidacloprid SC 192
Source text: In Arizona (USA) wurden Melonenpflanzen, die stark mit Nymphen von bekanntermaßen Neonikotinoyl-resistenten Silberflügeligen Weißen Fliegen (Bemisia argentifolii) infiziert waren, jeweils zwei Mal im Abstand von 15 Tagen mit der Verbindung 1-5 (SL 100, 150 g ai/ha/m CH (g aktive Substanz/ha/m CH, CH = Laubwand-Höhe) bzw. mit Imidacloprid (SC 192, 150 g ai/ha/m CH) besprüht. Zu verschiedenen Zeitpunkten nach der ersten bzw. zweiten Behandlung (DAA = Tage nach 1. Behandlung, DAB = Tage nach zweiter Behandlung) wurde die Wirksamkeit (in % Abbott: Verhältnis der Anzahl Nymphen auf behandelter Pflanze / Fläche zur Anzahl Nymphen auf Kontrolle) der beiden Substanzen gegen Nymphen von Bemisia argentifolii bestimmt.

Nilaparvata lugens = test: Field trial on rice plants, spray, against neonicotinoid-resistant brown planthoppers (Thailand); details: 50 g ai/ha/m CH, both SL 100
Source text: In Banglane (Thailand) wurden Reispflanzen, die stark mit bekanntermaßen Neonikotinoyl-resistenten Braunrückigen Reiszikaden (Nilaparvata lugens) infiziert waren, jeweils zwei Mal im Abstand von 14 Tagen mit der Verbindung 1-5 (SL 100, 50 g ai/ha/m CH (g aktive Substanz/ha/m CH, CH = Laubwand-Höhe) bzw. mit Imidacloprid (SL 100, 50 g ai/ha/m CH) besprüht. Zu verschiedenen Zeitpunkten nach der ersten bzw. zweiten Behandlung (DAA = Tage nach 1. Behandlung, DAB = Tage nach zweiter Behandlung) wurde die Wirksamkeit (in % Abbott: Verhältnis der Anzahl Tier auf behandelter Pflanze / Fläche zur Anzahl Tiere auf Kontrolle) der beiden Substanzen gegen Nilaparvata lugens bestimmt.

[4] = 7 DAC (days after 3rd treatment)

In the case of O=[N+]([O-])NC1=NCCN1Cc1ccc(Cl)nc1 [Imidacloprid], the “Vietnam (resistenter Stamm) LC50” value [1] is reported as 13 g/ha, the Effizienz [2, 4] is reported as 76,7 % Abbott and the Effizienz ([2]; 14 DAC) is reported as 75,3 % Abbott. For the same compound, the Effizienz ([2]; 21 DAC) was 75,1 % Abbott, the Effizienz ([2]; 28 DAC) was 1,3 % Abbott and the Effizienz ([3]; 7 DAB, sprayed 2x) was 36,1 % Abbott. For the same compound, the Effizienz ([3]; 8 DAA, sprayed) was 53,1 % Abbott, the Effizienz ([3]; 13 DAB, sprayed 2x) was 31,9 % Abbott and the Effizienz ([3]; 14 DAA, sprayed) was 47,6 % Abbott. The Effizienz (Nilaparvata lugens; 1 DAA, sprayed) was 19,6 % Abbott, the Effizienz (Nilaparvata lugens; 3 DAA, sprayed) was 24,9 % Abbott and the Effizienz (Nilaparvata lugens; 5 DAA, sprayed) was 36,5 % Abbott. For the same compound, the Effizienz (Nilaparvata lugens; 7 DAA, sprayed) was 26,6 % Abbott, the Effizienz (Nilaparvata lugens; 7 DAB, sprayed 2x) was 19,8 % Abbott and the Effizienz (Nilaparvata lugens; 14 DAA, sprayed) was 17,8 % Abbott. For the same compound, the Effizienz (Nilaparvata lugens; 14 DAB, sprayed 2x) was 26,4 % Abbott.
O=C1C=C(N(Cc2ccc(Cl)nc2)CC(F)F)CO1 [Verbindung I-5, 4-{[(6-Chlorpyrid-3-yl)methyl](2,2-difluorethyl)amino}furan-2(5H)-on] was tested, and the “Vietnam (resistenter Stamm) LC50” value [1] was 3,2 g/ha, the Effizienz [2, 4] was 99,2 % Abbott and the Effizienz ([2]; 14 DAC) was 98,5 % Abbott. For the same compound, the Effizienz ([2]; 21 DAC) was 97,4 % Abbott, the Effizienz ([2]; 28 DAC) was 84,3 % Abbott and the Effizienz ([3]; 7 DAB, sprayed 2x) was 55,4 % Abbott. The Effizienz ([3]; 8 DAA, sprayed) was 86,8 % Abbott, the Effizienz ([3]; 13 DAB, sprayed 2x) was 80,9 % Abbott and the Effizienz ([3]; 14 DAA, sprayed) was 84,6 % Abbott. The Effizienz (Nilaparvata lugens; 1 DAA, sprayed) was 19 % Abbott, the Effizienz (Nilaparvata lugens; 3 DAA, sprayed) was 39 % Abbott and the Effizienz (Nilaparvata lugens; 5 DAA, sprayed) was 66,8 % Abbott. For the same compound, the Effizienz (Nilaparvata lugens; 7 DAA, sprayed) was 70,3 % Abbott, the Effizienz (Nilaparvata lugens; 7 DAB, sprayed 2x) was 69,5 % Abbott and the Effizienz (Nilaparvata lugens; 14 DAA, sprayed) was 65,7 % Abbott. For the same compound, the Effizienz (Nilaparvata lugens; 14 DAB, sprayed 2x) was 55,9 % Abbott.
